Measured values reported in ChEMBL document CHEMBL2346544, “Design and synthesis of biotin- or alkyne-conjugated photoaffinity probes for studying the target molecules of PD 404182” (Bioorg Med Chem, 2013).

System: Human immunodeficiency virus 1
Assay: Antiviral activity against HIV1 3B infected in HeLa cells expressing CD4/CCR5/beta-Gal after 48 hrs by MAGI assay
Format: functional, organism-based
Details: Human immunodeficiency virus 1, 3B

| EC50 | SMILES |
| --- | --- |
| 5.11 µM | N=C1Sc2cc(Br)ccc2C2=NCC3(CCN(C(=O)OCc4ccc(C(=O)c5ccc(COC(=O)NCCOCCOCCOCCNC(=O)CCCC[C@@H]6SC[C@@H]7NC(=O)N[C@@H]76)cc5)cc4)CC3)CN12 |
| 6.87 µM | N=C1Sc2cc(-c3ccc(C(=O)c4ccc(COC(=O)NCCOCCOCCOCCNC(=O)CCCC[C@@H]5SC[C@@H]6NC(=O)N[C@@H]65)cc4)cc3)ccc2C2=NCCCN12 |
| 0.64 µM | C#CCOCc1ccc(C(=O)c2ccc(-c3ccc4c(c3)SC(=N)N3CCCN=C43)cc2)cc1 |
